Experimental data: article PMC10187093, “Synthesis, in silico modelling, and in vitro biological evaluation of substituted pyrazole derivatives as potential anti-skin cancer, anti-tyrosinase, and antioxidant agents” (Journal of Enzyme Inhibition and Medicinal Chemistry, 2023)
Read-outs that look alike come from different tables or passages of the source.

Tests used:
[1] = DPPH free radical scavenging assay; conditions: for Percent Scavenging (DPPH): 1 mM
Procedure: An initial screen was done of all 25 derivatives at a concentration of 1 mM. […] Methanol was used as the diluent, and 100 µL of DPPH (200 µM; Sigma-Aldrich, St. Louis, MO) was added to each well. […] The scavenging capacity (SC) was calculated as SC% = ((ΔAcontrol – ΔAsample)/ΔAcontrol) × 100%, where ΔAcontrol was the absorbance of the reagent blank, and ΔAsample was the absorbance of the test samples. The control contained all reagents except the compounds, and all tests were performed in triplicate. Quercetin served as a positive control. The DPPH methanolic solution (1 mL) mixed with DMSO (5 µL) served as a negative control.

GFP-A431 = assay: MTT antiproliferative/cytotoxicity assay, A431; type: cell-based, human; conditions: for IC50: read-out: IC50 GFP-A431
Procedure: (§1) Human-derived GFP-expressing melanoma A375 and epidermoid carcinoma A431 cell lines were purchased from Angio-Proteomie (Boston, MA). Human melanoma carcinoma SK-MEL-28 and human immortalised keratinocytes (HaCaT) cell lines were acquired from American Type Culture Collection (ATCC; Manassas, VA). […] The growth media of incubated cells were changed every 2–3 days until they attained 70–80% confluence, after which they were sub-cultured for experiments and re-passaging. DMSO was used as the vehicle to prepare a 10 mM stock solution of the test compounds.
(§2) Stock solutions (10 mM) were prepared by dissolving each compound to be screened in DMSO.

HaCaT = assay: MTT cytotoxicity assay, noncancerous HaCaT keratinocytes; type: cell-based, human; conditions: control noncancerous keratinocytes, MTT, 48 h, read-out: IC50 HaCaT
Procedure: (§3) Human-derived GFP-expressing melanoma A375 and epidermoid carcinoma A431 cell lines were purchased from Angio-Proteomie (Boston, MA). Human melanoma carcinoma SK-MEL-28 and human immortalised keratinocytes (HaCaT) cell lines were acquired from American Type Culture Collection (ATCC; Manassas, VA). Human cutaneous SCC cell line SCC-12[192] was generously provided by Dr. James G. Rheinwald to Dr. Tatiana Efimova. Except SK-MEL-28, which was cultured in an RPMI-1640 medium supplemented with 5% FBS, all other human immortalised cell lines were grown and maintained in DMEM containing varying percentages of FBS; 5% FBS for A431, SCC-12, and HaCaT lines, and 10% FBS for A375. All culture media were routinely supplemented with 1% PEST 100X (100 U/mL penicillin, 100 μg/mL streptomycin), and cells were cultured in incubators maintained at 37 °C under an atmosphere of 95% humidity, 20% O2, and 5% CO2. The growth media of incubated cells were changed every 2–3 days until they attained 70–80% confluence, after which they were sub-cultured for experiments and re-passaging. DMSO was used as the vehicle to prepare a 10 mM stock solution of the test compounds.
(§4) Stock solutions (10 mM) were prepared by dissolving each compound to be screened in DMSO. From these stock solutions, escalating concentrations were prepared using the corresponding cell growth media as a diluent, and the cells (65–75% confluent) were treated with (0–40 µM) or without the drug in sext- to octuplicate and incubated for 48 h. All treatment protocols and controls were prepared as previously described.
(§5) The potency and cytotoxicity of the test compounds against two cutaneous melanoma (A375 and SK-MEL-28) and two non-melanoma (A431 and SCC-12) SC cell lines in addition to a control immortalised normal human epidermal keratinocytes (HaCaT) cell line were assessed by MTT assay as previously described.

A375 = assay: MTT antiproliferative/cytotoxicity assay, A375; type: cell-based, human; conditions: melanoma, MTT, 48 h, read-out: IC50 A375
Procedure: as §3, §4, §5

SK-MEL-28 = assay: MTT antiproliferative/cytotoxicity assay, SK-MEL-28; type: cell-based, human; conditions: melanoma, MTT, 48 h, read-out: IC50 SKMEL-28
Procedure: as §3, §4, §5

SCC-12 = assay: MTT antiproliferative/cytotoxicity assay, SCC-12; type: cell-based, human; conditions: for IC50: non-melanoma, MTT, 48 h, read-out: IC50 SCC-12
Procedure: as §1, §2

mushroom tyrosinase = target: T1, mushroom tyrosinase (Agaricus bisporus, UniProt C7FF04); assay: In vitro mushroom tyrosinase inhibition assay; type: biochemical; conditions: for inhibition at 500 µM: single-concentration screen, read-out: % Inhibition of tyrosinase; for IC50: > 500 = not biologically relevant, read-out: IC50 Value, mushroom tyrosinase inhibition (Table S1)
T1 construct: purchased Sigma-Aldrich Chemical Company (St. Louis, MO) and MP Biomedicals (Irvine, CA)
Procedure: The anti-tyrosinase potential of all the synthesised derivatives was determined by an enzymatic tyrosinase inhibition assay based on their ability to inhibit the substrate, L-tyrosine, from binding to the tyrosinase enzyme. […] Test samples were dissolved in DMSO at a concentration of 10 mM and then diluted to different concentrations with phosphate buffer (0.1 M, pH 6.8). Each well contained 40 µL of the sample with 80 µL of phosphate buffer solution (0.1 M, pH 6.8), 40 µL of tyrosinase enzyme (100 units/mL), and 40 µL L-tyrosine (2.5 mM). The mixture was incubated for 30 min at room temperature, and absorbance was measured at 490 nm. Each sample was accompanied by a sample blank containing all components except tyrosinase. […] The percentage of tyrosinase inhibition was calculated as follows: ((ΔAcontrol – ΔAsample)/ΔAcontrol) × 100. IC50 values denoted the sample concentration required to inhibit 50% tyrosinase activity (Table S1).

[2] = read-out: IC50 DPPH radical scavenging
[3] = Homo sapiens, A-431, 48 h, non-melanoma, MTT, 48 h
[4] = N.A. = No Activity, > 1000 = not biologically relevant, read-out: IC50 Value, DPPH antioxidant activity (Table S4)
[5] = IC50 HaCaT divided by IC50 SCC-12
[6] = IC50 HaCaT divided by IC50 A431

T1 sequence (C7FF04 1-392 limits assumed): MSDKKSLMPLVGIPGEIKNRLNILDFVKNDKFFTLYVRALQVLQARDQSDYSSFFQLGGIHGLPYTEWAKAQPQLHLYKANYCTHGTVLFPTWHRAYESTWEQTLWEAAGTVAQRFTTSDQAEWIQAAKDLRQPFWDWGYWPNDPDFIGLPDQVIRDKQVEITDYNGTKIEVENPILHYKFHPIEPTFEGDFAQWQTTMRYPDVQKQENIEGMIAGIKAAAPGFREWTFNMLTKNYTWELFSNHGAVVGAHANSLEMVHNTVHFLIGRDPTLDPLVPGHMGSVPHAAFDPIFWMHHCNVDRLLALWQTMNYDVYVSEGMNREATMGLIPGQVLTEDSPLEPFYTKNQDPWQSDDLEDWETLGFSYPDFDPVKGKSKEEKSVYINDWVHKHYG

SMILES | IC50 (HaCaT; Homo sapiens, HaCaT) [µM] | IC50 (A375; Homo sapiens, A-375, 48 h) [µM] | IC50 (SCC-12; Homo sapiens, SCC12, 48 h) [µM] | inhibition at 500 µM (mushroom tyrosinase) [%] | IC50 (mushroom tyrosinase) [µM] | IC50 (GFP-A431; [3]) [µM] | Percent Scavenging (DPPH) [1] [%] | IC50 (SK-MEL-28; Homo sapiens, SK-MEL-28, 48 h) [µM] | other results
Cc1cc(C(C)(C)C)c(O)c(C(C)(C)C)c1 [BHT, butylated hydroxytoluene, reference compound] |  |  |  |  |  |  |  |  | IC50 [1, 2]: 285 ± 7 µM
Cc1ccc(-c2cc(C(F)(F)F)nn2-c2ccc(S(N)(=O)=O)cc2)cc1 [Celecoxib, celecoxib, reference compound] | 49.8 ± 8.2 | 27 |  |  |  |  |  |  | IC50 (GFP-A431; Homo sapiens, A-431, 48 h): 7.4 µM; IC50 (A375): 26.8 ± 2.7 µM; IC50 (SK-MEL-28; Homo sapiens, SK-MEL-28): 11.4 ± 2.4 µM
N.N.[Cl][Pt][Cl] [Cisplatin, cisplatin, reference compound] |  |  |  |  |  |  |  |  | IC50 (SCC-12): 4.4 ± 0.2 µM; IC50 (GFP-A431; non-melanoma, MTT, 48 h): 7.7 ± 0.3 µM; IC50 (HaCaT): 3.4 ± 0.4 µM; IC50 (A375): 1.49 ± 0.44 µM; IC50 (SK-MEL-28): 14.2 ± 0.24 µM
CCc1c(C)n[nH]c1C [P1, 4-Ethyl-3,5-dimethyl-1H-pyrazole] | 60.5 ± 3.9 | 47.7 ± 4.2 | 257 ± 18.4 | 6.77 | > 500 | 41.6 ± 0.8 | 5.85 | 42.8 ± 0.3 | IC50 [1, 4]: > 1000 µM
Cc1n[nH]c2c1CCC2 [P2, 3-Methyl-1,4,5,6-tetrahydrocyclopenta[c]pyrazole] | 44.2 ± 1.1 | 54.3 ± 1.6 | 246 ± 37.3 | 20.8 | > 500 | 43.9 ± 2.1 | -5.84 | 42.6 ± 1.5 | 
Cc1cc(-c2ccccc2)n[nH]1 [P3, 5-Methyl-3-phenyl-1H-pyrazole] | 42.1 ± 3.4 | 54.8 ± 2.7 | 546 ± 20.7 | 42.6 | > 500 | 27.2 ± 0.9 | -0.39 | 59.1 ± 4.6 | selectivity index (SI) SCC-12 (SCC-12): 546.5 ± 20.7 (0.1); selectivity index (SI) A431 (GFP-A431): 27.2 ± 0.9 (1.6)
Cc1[nH]nc(-c2ccccc2)c1Cl [P4, 4-Chloro-5-methyl-3-phenyl-1H-pyrazole] | 76.1 | 58.4 ± 4.5 | 216 ± 13.4 | 68.7 ± 0.4 | 197 | 70.8 ± 6.2 | -0.84 | 62.3 ± 2.7 | 
Cc1[nH]nc2c1CCc1ccccc1-2 [P5, 3-Methyl-4,5-dihydro-2H-benzo[g]indazole] | 265 ± 4.3 | 65.3 ± 4.2 | 77.6 ± 1.7 | 40 | > 500 | 42.1 ± 3.1 | -10.48 | 131 ± 2.4 | selectivity index (SI) SCC-12 (SCC-12; [5]): 3.4; selectivity index (SI) A431 (GFP-A431; [6]): 6.3; DPPH antioxidant activity (in words) [1]: inactivity
Cc1[nH]nc2c1ccc1ccccc12 [P6, 3-Methyl-2H-benzo[g]indazole] | 147.2 ± 0.8 | 114 ± 3.3 | 49.9 ± 3.4 | 81.7 ± 0.7 | > 500 | 69.8 ± 7.5 | 65.17 | 47.4 ± 1.2 | selectivity index (SI) SCC-12 (SCC-12; [5]): 3.0; selectivity index (SI) A431 (GFP-A431; [6]): 2.1; IC50 [1, 4]: 30.6 µM; IC50 [1, 2]: 30.6 ± 2.1 µM
CCc1c(C)nn(-c2ccccc2)c1C [P7, 4-Ethyl-3,5-dimethyl-1-phenyl-1H-pyrazole] | 59.2 ± 3.5 | 53.3 ± 4.2 | 43 ± 2.1 | 55.5 | > 500 | 47.8 ± 2 | 15.47 | 46 ± 1 | IC50 [1, 4]: > 1000 µM
Cc1nn(-c2ccccc2)c2c1CCC2 [P8, 3-Methyl-1-phenyl-1,4,5,6-tetrahydrocyclopenta[c]pyrazole] | 44.5 ± 1.4 | 55.3 ± 3.8 | 120 ± 8.5 | 67.2 ± 0.2 | 190 | 72.2 ± 5.2 | -2.57 | 181 ± 4.7 | 
Cc1cc(-c2ccccc2)n(-c2ccc(S(N)(=O)=O)cc2)n1 [P19, 4-(3-Methyl-5-phenyl-1H-pyrazol-1-yl)benzenesulfonamide] | 57 ± 1.3 | 47.1 ± 4.2 |  | 21.2 | > 500 |  | -18.51 | 40.5 ± 3 | 
OC[C@H]1O[C@@H](Oc2ccc(O)cc2)[C@H](O)[C@@H](O)[C@@H]1O [arbutin, 4-hydroxyphenyl β-D-glucopyranoside, reference compound] |  |  |  | 59 ± 0.4 |  |  |  |  | 
O=C1O[C@H]([C@@H](O)CO)C(O)=C1O [ascorbic acid, reference compound] |  |  |  |  |  |  |  |  | IC50 [1, 2]: 25.2 ± 1.4 µM
O=c1c(O)c(-c2ccc(O)c(O)c2)oc2cc(O)cc(O)c12 [quercetin, reference compound] |  |  |  |  |  |  | 60 |  | Percent Scavenging (DPPH) ([1]; listed as Quercetin): 60.83%
